Literature values in patent publication US20250283177A1, “BIOMARKERS AND METHODS OF USE THEREOF FOR TREATMENT OF PERIPHERAL T-CELL LYMPHOMA” (BOARD OF REGENTS OF THE UNIVERSITY OF NEBRASKA, priority 2022, published 2025).
Read-outs that look alike come from different tables or passages of the source.

B1: mogamulizumab (antibody, chains of the INN, looked up, V domains shown)
VH: EVQLVESGGDLVQPGRSLRLSCAASGFIFSNYGMSWVRQAPGKGLEWVATISSASTYSYYPDSVKGRFTISRDNAKNSLYLQMNSLRVEDTALYYCGRHSDGNFAFGYWGQGTLVTVSS
VL: DVLMTQSPLSLPVTPGEPASISCRSSRNIVHINGDTYLEWYLQKPGQSPQLLIYKVSNRFSGVPDRFSGSGSGTDFTLKISRVEAEDVGVYYCFQGSLLPWTFGQGTKVEIK

How the values were obtained:
[1] = tested on: peripheral T-cell lymphoma (PTCL); conditions: for Overall response rate by common subtype: Phase II studies

Molecule | Overall response rate by common subtype ([1]; subtype AITL) [%] | Overall response rate by common subtype ([1]; subtype ALCL) [%] | Overall response rate by common subtype ([1]; subtype PTCL-NOS) [%] | Benefit in PTCL subgroup (subgroups of PTCL; CD30+ PTCL, particularly ALCL) | Responsiveness to therapy ([1]; ALK(−) ALCL) | Benefit in PTCL subgroup (subgroups of PTCL; ALK+ALCL) | Benefit in PTCL subgroup (subgroups of PTCL; ATLL)
C#CCC(Cc1cnc2nc(N)nc(N)c2n1)c1ccc(C(=O)N[C@@H](CCC(=O)O)C(=O)O)cc1 (stereo partly shown) [Pralatrexate] | 8 | 29 | 31 |  |  |  | 
Brentuximab vedotin | 54 | 86 | 33 | striking benefits | highly responsive |  | 
C[C@@H](Oc1cc(-c2cnn(C3CCNCC3)c2)cnc1N)c1c(Cl)ccc(F)c1Cl [Crizotinib] |  |  |  |  |  | striking benefits | 
O=C(/C=C/c1cccc(S(=O)(=O)Nc2ccccc2)c1)NO [Belinostat] | 46 | 15 | 23 |  |  |  | 
B1 |  |  |  |  |  |  | striking benefits
